# Calls of active or inactive are those of the source. No rule for the calls is given here.
# Target: Peptidyl-prolyl cis-trans isomerase FKBP1A (Homo sapiens) (UniProt P62942)
# Test: small-molecule binding to FKBP12 – biophysical, NMR detection (AID 608)
# Details: purified FKBP12
# Sequence of Peptidyl-prolyl cis-trans isomerase FKBP1A (Homo sapiens) (P62942 whole entry, looked up): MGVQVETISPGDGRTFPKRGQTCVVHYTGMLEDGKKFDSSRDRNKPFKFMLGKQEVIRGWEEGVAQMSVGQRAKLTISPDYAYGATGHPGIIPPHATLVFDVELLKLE
row,SMILES,Kd
1,O=C(O)c1csc(-c2ccccc2)n1,> 4 mM (inactive)
2,CC(=O)Nc1nc(-c2cccs2)cs1,> 4 mM (inactive)
3,COc1cccc(-c2nn(-c3ccccc3)cc2CO)c1,> 4 mM (inactive)
4,CCOC(=O)C1=C(C)N2CCN=C2S1,> 4 mM (inactive)
5,Cc1sc2nc(C)n(NC(N)=O)c(=O)c2c1C,> 4 mM (inactive)
6,CC(C)(OC(=O)c1ccccc1)[C@@H]1Cc2cc3ccc(=O)oc3cc2O1,> 4 mM (inactive)
7,O=C1CC(=O)N(c2ccccc2F)C(=S)N1,> 4 mM (inactive)
8,CCC1(CC)C(=O)NC(=O)N=C1N,> 4 mM (inactive)
9,CC(=O)Oc1ccc2c(c1C(C)C)CCC1C(C)(C)CCC[C@]21C (stereo partly specified),> 4 mM (inactive)
10,O=C(NC(=S)NCc1cccnc1)c1ccco1,> 4 mM (inactive)
11,O=C(Cc1cccs1)Nc1ccon1,> 4 mM (inactive)
12,COc1cc(/C=C2/NC(=S)NC2=O)cc(Cl)c1O,> 4 mM (inactive)
13,CC(=O)Nc1ccn(Cc2c(F)cccc2Cl)n1,> 4 mM (inactive)
14,Cc1[nH]n(-c2ccccc2)c(=O)c1[N+](=O)[O-],> 4 mM (inactive)
15,COc1ccccc1NC(C)=O,> 4 mM (inactive)
16,CC(C)NS(=O)(=O)c1ccc(OCC(=O)N2CCOCC2)cc1,inactive
17,O=C(COc1ccc(S(=O)(=O)NC2CCCC2)cc1)N1CCOCC1,inactive
18,S=c1[nH]c2cccnc2[nH]1,> 4 mM (inactive)
19,COc1ccc(C(=O)CC(=O)O)c2c1C=CC(C)(C)O2,> 4 mM (inactive)
20,NC(=O)c1ccc(C(N)=O)c(-c2ccccc2)c1,> 4 mM (inactive)
21,COc1cc2c(cc1NS(=O)(=O)N1CCCCC1)oc1ccccc12,> 4 mM (inactive)
22,CC(=O)Nn1c(=O)[nH]c2ccccc2c1=O,> 4 mM (inactive)
23,Nc1ccc2c(c1)OCCO2,> 4 mM (inactive)
24,OCc1cccc2nonc12,> 4 mM (inactive)
25,Cc1nn(-c2ccccc2C(=O)O)c(=O)c2ccccc12,> 4 mM (inactive)

row,SMILES,Kd
1,Cc1nnsc1-c1onc(C)c1C(=O)O,> 4 mM (inactive)
2,CN1C2CCC1CC(OC(=O)C(CO)c1ccccc1)C2 (stereo unspecified),> 4 mM (inactive)
3,CC(=O)NCCc1cc2ccc(C)c(C)c2[nH]c1=O,> 4 mM (inactive)
4,Nc1ccc(-c2cnco2)cc1,> 4 mM (inactive)
5,Cc1cc(CN2C(=O)c3ccccc3C2=O)on1,> 4 mM (inactive)
6,O=C(CSc1cccc2cccnc12)N1CCCC1,> 4 mM (inactive)
7,O=C1c2ccccc2C(=O)N1OCc1ccccc1,> 4 mM (inactive)
8,CC1(C)C2CC(=O)[C@]3(C)C(CC[C@@]4(C)[C@H](c5ccoc5)OC(=O)[C@H]5O[C@]543)[C@@]2(C)C=C[C@@H]1O (stereo partly specified),> 4 mM (inactive)
9,O=C1CCC(C(=O)NCc2ccc(Cl)cc2)N1 (stereo unspecified),> 4 mM (inactive)
10,O=C1N=c2ccccc2=C1c1[nH]c(=S)[nH]c1O,> 4 mM (inactive)
11,Oc1cnc2ccccc2c1CN1CCOCC1,> 4 mM (inactive)
12,COc1ccc(-c2cc3nc4n(c(=O)c3s2)CCC4)cc1,> 4 mM (inactive)
13,CCOC12NC(=O)CC(=O)N1C(c1ccccc1)=CS2 (stereo unspecified),> 4 mM (inactive)
14,O=C(NCc1ccco1)c1cccc(F)c1,> 4 mM (inactive)
15,CCn1cnc2cc([N+](=O)[O-])ccc2c1=O,> 4 mM (inactive)
16,O=C(Nc1ccccc1F)c1ccncc1,> 4 mM (inactive)
17,O=C1C2C3C=CC(C3)C2C(=O)N1c1nccs1 (stereo unspecified),> 4 mM (inactive)
18,O=C(/C=C/c1ccco1)NC1=NCCS1,> 4 mM (inactive)
19,OC1CCN(Cc2ccc[nH]2)CC1,> 4 mM (inactive)
20,CCN1CCC(NC2CCC(O)CC2)CC1 (stereo unspecified),> 4 mM (inactive)
21,COCc1c(CN)cnc(C)c1N,> 4 mM (inactive)
22,COc1cccc(OCC(=O)N2CCOCC2)c1,inactive
23,COc1cc(-c2coc3cc(OCc4ccccc4)c(OC)c(O)c3c2=O)cc(O)c1OC,> 4 mM (inactive)
24,FC(F)(F)c1nnc2ccc(N3CCOCC3)nn12,> 4 mM (inactive)
25,O=c1cc(-c2cc(O)c(O)c(O)c2)oc2cc(O)cc(O)c12,> 4 mM (inactive)

row,SMILES,Kd
1,COc1ccc(-c2coc3cc(OC)cc(OC)c3c2=O)cc1,> 4 mM (inactive)
2,CC(=O)c1c(C)nc(-c2cccs2)n1O,> 4 mM (inactive)
3,O=C(O)CS(=O)(=O)c1ccccc1[N+](=O)[O-],> 4 mM (inactive)
4,O=C(O)/C=C(\CC(=O)O)C(=O)O,> 4 mM (inactive)
5,COc1ccc2c(c1)O[C@H]1c3ccc(OC)cc3OC[C@@H]21,> 4 mM (inactive)
6,O=C(O)CSc1cccc2cccnc12,> 4 mM (inactive)
7,O=C1NC(=O)/C(=C\c2ccco2)S1,> 4 mM (inactive)
8,CC(=O)N1N=C(N)SC1c1cccnc1 (stereo unspecified),> 4 mM (inactive)
9,CC(C)CCCC(C)C1CCC2C3CC(=O)[C@H]4C[C@@H](O)CC[C@]4(C)C3CC[C@]12C (stereo partly specified),> 4 mM (inactive)
10,Cc1nnc(SCc2ccccc2)[nH]c1=O,> 4 mM (inactive)
11,COc1cccc(-c2nc3ccc(O)cc3c(=O)o2)c1,> 4 mM (inactive)
12,Cc1nc2ccccc2c(=O)n1/N=C/c1ccncc1,> 4 mM (inactive)
13,O=C(NCCO)c1cc2ccccc2c(=O)s1,> 4 mM (inactive)
14,CC(=O)OC1CCC23CC1(C)CCC2C(C)(C)CC3OC(C)=O (stereo unspecified),> 4 mM (inactive)
15,COC[C@]12CN(C=O)C3[C@@H]4[C@H](OC)C1[C@]3(C1CC3(O)C(OC)C(O)C4(OC(C)=O)C1C3OC(=O)c1ccccc1)[C@@H](OC)C[C@H]2O (stereo partly specified),> 4 mM (inactive)
16,CNC(=S)Nc1cccc(C(=O)O)c1,> 4 mM (inactive)
17,CN(C)C(=O)c1ccccc1-c1ccccc1,> 4 mM (inactive)
18,O=C1CSC(c2ccc3c(c2)OCO3)N1 (stereo unspecified),> 4 mM (inactive)
19,c1ccc(CCc2nc(-c3cccnc3)no2)cc1,> 4 mM (inactive)
20,COCC(=O)Nc1cccc(Br)c1,> 4 mM (inactive)
21,CN1CCN(c2nc3c(c(=O)[nH]2)CCCC3)CC1,> 4 mM (inactive)
22,O=C(Nc1ccc(Cl)cn1)c1cnn2cccnc12,> 4 mM (inactive)
23,O=c1[nH]c2ccc(S(=O)(=O)NC3CC3)cc2[nH]1,> 4 mM (inactive)
24,COc1ccc(-c2c(OC)c3c(OC)c4c(cc3oc2=O)OC(C)(C)C=C4)cc1,> 4 mM (inactive)
25,Nc1nc2ccccc2n1CCN1CCCC1,> 4 mM (inactive)

row,SMILES,Kd
1,O=C1CCC(=O)N1CN1CCOCC1,> 4 mM (inactive)
2,CC1=CC(=O)CC(C)(C)C1(O)/C=C/C(C)=C\C(=O)O (stereo unspecified),> 4 mM (inactive)
3,CC1=CC2C(C(C)C)CCC(C)(O)C2CC1 (stereo unspecified),> 4 mM (inactive)
4,CC1/C(=N/O)C[C@@H]2C[C@H]1C2(C)C (stereo partly specified),> 4 mM (inactive)
5,COc1ccc(S(=O)(=O)NCCO)cc1,> 4 mM (inactive)
6,Cc1cc(/C=N/O)nc(=O)[nH]1,> 4 mM (inactive)
7,CC(C)c1ccc(OCC(=O)N2CCOCC2)cc1,0.394 mM
8,Cc1cc(O)c2c(c1)C(=O)c1cccc(O)c1C2=O,> 4 mM (inactive)
9,O=C(NC1CCS(=O)(=O)C1)c1ccccc1 (stereo unspecified),> 4 mM (inactive)
10,O=C(NCc1cccs1)c1nc2ncccn2n1,> 4 mM (inactive)
11,NC(=O)CSc1ccc2nnc(-c3ccccc3)n2n1,> 4 mM (inactive)
12,Nc1ccc2c(c1)CCCC2=O,> 4 mM (inactive)
13,CC(=O)c1cc2c(cc1O)OC(C)(C)C=C2,> 4 mM (inactive)
14,C[C@@H]1C(=O)O[C@H]2[C@H]1CC[C@@]1(C)C=CC(=O)[C@@]3(C)O[C@@]213,> 4 mM (inactive)
15,O=C(O)CN1CCN(C2CCCC2)CC1,> 4 mM (inactive)
16,CC(C)(C)Cc1nc(-c2ccccn2)no1,> 4 mM (inactive)
17,CC(=O)NN1C(=O)c2cccc3cccc(c23)C1=O,> 4 mM (inactive)
18,Cc1cc(C(=O)Nc2ccccn2)no1,> 4 mM (inactive)
19,NC(Cc1c[nH]c2ccccc12)C(=O)O (stereo unspecified),> 4 mM (inactive)
20,Cc1cc(O)c(C=O)c(O)c1C(=O)O,> 4 mM (inactive)
21,c1ccc(-c2csc3ncn4nnnc4c23)cc1,> 4 mM (inactive)
22,CC1(C)CC(NC(=O)/C=C/C(=O)O)CC(C)(C)N1,> 4 mM (inactive)
23,NC(=O)C(=O)NCc1ccc(Cl)cc1,> 4 mM (inactive)
24,O=C(c1cnsn1)N1CCN(c2ccccc2)CC1,> 4 mM (inactive)
25,Cc1ccc2[nH]cc(CCN)c2c1,> 4 mM (inactive)

row,SMILES,Kd
1,O=C1C2C3C=CC(C3)C2C(=O)N1CCO (stereo unspecified),> 4 mM (inactive)
2,CN1CCCC1C(=O)O (stereo unspecified),> 4 mM (inactive)
3,O=C(c1sc2cccc(F)c2c1Cl)N1CCOCC1,inactive
4,CN(C)S(=O)(=O)N1CCc2ccccc21,> 4 mM (inactive)
5,NC(=O)c1c(Cl)nsc1-c1ccccc1Cl,> 4 mM (inactive)
6,O=C(NCCO)c1ccccc1I,> 4 mM (inactive)
7,O=C1NC(=O)C(C2SC(=O)NC2=O)S1 (stereo unspecified),> 4 mM (inactive)
8,COc1ccc2c(c1)OCC(Cc1ccc(OC)c(O)c1)C2=O (stereo unspecified),> 4 mM (inactive)
9,Oc1cc(O)c2c(c1)O[C@H](c1ccc(O)c(O)c1)[C@H](O)C2,> 4 mM (inactive)
10,Cc1cc(C(=O)Nc2ccc3c(c2)OCCO3)c(C)o1,> 4 mM (inactive)
11,OCCCc1nc2ccc(C(F)(F)F)cc2[nH]1,> 4 mM (inactive)
12,O=C(c1cnsn1)N1CCN(c2ccccn2)CC1,> 4 mM (inactive)
13,O=C1NC(=O)C(=Cc2cccs2)C(=O)N1,> 4 mM (inactive)
14,CC(C)c1ccc(CCC(=O)N2CCOCC2)cc1,0.0023 mM
15,CC(=O)Nc1nnc(-c2ccncc2)s1,> 4 mM (inactive)
16,COc1cc(C(C)=O)cc(OC)c1O,> 4 mM (inactive)
17,Nc1cccc(S(=O)(=O)N2CCOCC2)c1,> 4 mM (inactive)
18,Cc1cc(S(=O)(=O)N2CCCC2)ccc1OCC(=O)N1CCOCC1,inactive
19,COc1ccc2c(c1OC)C(=O)N(c1ncn[nH]1)C2,> 4 mM (inactive)
20,O=c1c(Cl)c(NCCO)ncn1-c1ccccc1,> 4 mM (inactive)
21,C=CCc1ccc2c(c1)OCO2,> 4 mM (inactive)

# Source: PubChem BioAssay AID608 (Sanford-Burnham Center for Chemical Genomics, 2007)
